Results reported in patent publication US20260083728A1, “COMPOUNDS FOR TREATING INFECTIONS WITH PARASITIC PROTOZOA” (OHIO STATE INNOVATIION FOUNDATION, priority 2022, published 2026).
pEC50: −log10 of the molar value.

Key:
[1] = tested on: L. donovani LV82 promastigotes; experiment: Promastigote assay (proliferation); format: cell-based; conditions: Leishmania donovani, n ≥ 3 independent experiments
Description: Promastigote assay. The effect of the compounds on the proliferation of Leishmania donovani LV82 strain parasites (MHOM/ET/67:LV82) was carried out as outlined by Feng et al.^26

J774 macrophages = experiment: J774 macrophage assay; format: cell-based; conditions: Mus musculus; J774 murine macrophages; n ≥ 3 independent experiments
Description: J774 macrophage assay. This assay was performed as reported by Zhu et al.^27

[2] = tested on: intracellular L. donovani LV82 parasites; experiment: L. donovani-infected macrophage assay (high content imaging); format: cell-based, Leishmania donovani; conditions: for effect on intracellular parasites: at non-toxic concentrations
Description: (§1) Evaluation in an infected macrophage model. Four of the compounds described above were selected for evaluation in an L. donovani infected macrophage model. […] An image-based assay employing murine peritoneal macrophages as host cells and DAPI as an indicator that was based on assays reported previously in the literature^23-24 was used to evaluate these compounds.
(§2) L. donovani-infected macrophage assay. The efficacy of selected target compounds against intracellular L. donovani LV82 parasites was conducted using murine peritoneal macrophages as the host cell in a high content imaging assay essentially as described by Joice et al.^24 and Abdelhameed et al.^28, with the following modifications. The density of peritoneal macrophages was 5×10^4 host cells/well, with the parasite/macrophage ratio remaining at 5:1. The concentration of 4,6-diamidino-2-phenylindole (DAPI) employed for nuclear staining was 4 μM. […] For the quantification of the infection, macrophage nuclei were selected first by DAPI staining with area larger than 30 μm^2. The cytoplasm was selected consequentially based on the nuclei with the digital phase contrast (DPC) channel. Parasites in the cytoplasm were selected based on relative intensity. Parasites per macrophage in each well were exported to a CSV file to generate dose responses, with data analysis performed as described by Joice et al.^24

[3] = tested on: murine peritoneal macrophages; experiment: Host cell toxicity in the infected macrophage assay; format: cell-based; conditions: for host cell toxicity: 25 μM and below; for toxicity to host cells: 50 μM
Description: as §1, §2

L. donovani CYP5122A1 = L. donovani CYP5122A1 (Leishmania donovani, UniProt Q2XQE3); experiment: Leishmania CYP5122A1 inhibition assay; format: biochemical; conditions: comparator 18a
L. donovani CYP5122A1, sequence (Q2XQE3 entry or part of it): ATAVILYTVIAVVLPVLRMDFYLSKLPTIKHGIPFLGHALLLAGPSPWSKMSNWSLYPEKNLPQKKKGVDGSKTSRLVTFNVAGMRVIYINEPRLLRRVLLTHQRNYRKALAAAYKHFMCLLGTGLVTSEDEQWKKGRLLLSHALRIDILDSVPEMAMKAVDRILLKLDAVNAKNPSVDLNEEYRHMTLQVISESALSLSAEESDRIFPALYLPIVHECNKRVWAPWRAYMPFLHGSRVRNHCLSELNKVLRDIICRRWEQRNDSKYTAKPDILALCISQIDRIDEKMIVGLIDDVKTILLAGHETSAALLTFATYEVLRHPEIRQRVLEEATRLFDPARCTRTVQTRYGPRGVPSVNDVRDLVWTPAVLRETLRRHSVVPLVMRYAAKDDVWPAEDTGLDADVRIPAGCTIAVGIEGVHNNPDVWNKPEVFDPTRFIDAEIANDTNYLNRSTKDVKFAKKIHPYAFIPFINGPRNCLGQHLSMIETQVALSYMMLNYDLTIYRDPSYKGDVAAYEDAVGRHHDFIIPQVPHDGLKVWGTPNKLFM
Description: (§3) Leishmania CYP51 and CYP5122A1 assays. The cloning, expression, purification, and inhibition assays performed with L. donovani CYP51 and CYP5122A1 were conducted as described in Wang et al.^19

L. donovani CYP51 = L. donovani CYP51 (Leishmania donovani, UniProt A0A3S7WRS7); experiment: Leishmania CYP51 inhibition assay; format: biochemical; conditions: comparator 18a
L. donovani CYP51, sequence (A0A3S7WRS7 entry or part of it): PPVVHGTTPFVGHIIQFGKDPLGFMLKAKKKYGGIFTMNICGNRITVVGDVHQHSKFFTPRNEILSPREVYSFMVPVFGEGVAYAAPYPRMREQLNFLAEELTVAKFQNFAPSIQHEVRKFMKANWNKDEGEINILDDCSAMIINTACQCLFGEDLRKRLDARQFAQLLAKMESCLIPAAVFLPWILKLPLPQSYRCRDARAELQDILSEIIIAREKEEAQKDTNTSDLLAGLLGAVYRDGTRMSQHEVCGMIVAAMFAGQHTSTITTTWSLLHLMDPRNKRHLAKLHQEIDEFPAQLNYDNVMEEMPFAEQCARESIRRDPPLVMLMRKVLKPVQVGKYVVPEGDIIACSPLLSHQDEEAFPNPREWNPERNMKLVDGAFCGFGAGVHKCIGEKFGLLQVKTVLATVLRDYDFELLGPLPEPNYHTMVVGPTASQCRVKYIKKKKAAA
Description: as §3

[4] = murine peritoneal macrophages as host cells, n=3 determinations

SMILES | pEC50 [1] | also measured
Cc1cc(C)cc(NC(=O)N2CCN(Cc3ccncc3)CC2)c1 [Compound 4a, N-(3,5-dimethylphenyl)-4-(pyridin-4-ylmethyl)piperazine-1-carboxamide] | < 4.30 | –
O=C(Nc1ccccc1)N1CCN(Cc2ccncc2)CC1 [Compound 4b, N-phenyl-4-(pyridin-4-ylmethyl)piperazine-1-carboxamide] | < 4.00 | –
Cc1ccccc1NC(=O)N1CCN(Cc2ccncc2)CC1 [Compound 4c, 4-(Pyridin-4-ylmethyl)-N-(o-tolyl)piperazine-1-carboxamide] | < 4.00 | –
Cc1cccc(NC(=O)N2CCN(Cc3ccncc3)CC2)c1 [Compound 4d, 4-(Pyridin-4-ylmethyl)-N-(m-tolyl)piperazine-1-carboxamide] | < 4.00 | –
Cc1ccc(NC(=O)N2CCN(Cc3ccncc3)CC2)cc1 [Compound 4e, 4-(Pyridin-4-ylmethyl)-N-(p-tolyl)piperazine-1-carboxamide] | < 4.00 | –
Cc1cc(NC(=O)N2CCN(Cc3ccncc3)CC2)cc(C)c1C [Compound 4f, 4-(pyridin-4-ylmethyl)-N-(3,4,5-trimethylphenyl)piperazine-1-carboxamide] | < 4.30 | –
CC(C)(C)c1cccc(NC(=O)N2CCN(Cc3ccncc3)CC2)c1 [Compound 4g, N-(3-(tert-butyl)phenyl)-4-(pyridin-4-ylmethyl)piperazine-1-carboxamide] | – | pEC50 (J774 macrophages): < 4.30; effect on intracellular parasites [2]: little effect
COc1cccc(NC(=O)N2CCN(Cc3ccncc3)CC2)c1 [Compound 4i, N-(3-methoxyphenyl)-4-(pyridin-4-ylmethyl)piperazine-1-carboxamide] | < 4.00 | –
COc1ccc(NC(=O)N2CCN(Cc3ccncc3)CC2)cc1 [Compound 4j, N-(4-methoxyphenyl)-4-(pyridin-4-ylmethyl)piperazine-1-carboxamide] | < 4.00 | –
COc1cc(NC(=O)N2CCN(Cc3ccncc3)CC2)cc(OC)c1 [Compound 4k, N-(3,5-dimethoxyphenyl)-4-(pyridin-4-ylmethyl)piperazine-1-carboxamide] | < 4.00 | –
CC(C)Oc1cccc(NC(=O)N2CCN(Cc3ccncc3)CC2)c1 [Compound 4l, N-(3-isopropoxyphenyl)-4-(pyridin-4-ylmethyl)piperazine-1-carboxamide] | < 4.30 | –
O=C(Nc1ccccc1Cl)N1CCN(Cc2ccncc2)CC1 [Compound 4m, N-(2-chlorophenyl)-4-(pyridin-4-ylmethyl)piperazine-1-carboxamide] | < 4.00 | –
O=C(Nc1cccc(Cl)c1)N1CCN(Cc2ccncc2)CC1 [Compound 4n, N-(3-chlorophenyl)-4-(pyridin-4-ylmethyl)piperazine-1-carboxamide] | < 4.00 | –
O=C(Nc1ccc(Cl)cc1)N1CCN(Cc2ccncc2)CC1 [Compound 4o, N-(4-chlorophenyl)-4-(pyridin-4-ylmethyl)piperazine-1-carboxamide] | < 4.00 | –
O=C(Nc1cccc(F)c1)N1CCN(Cc2ccncc2)CC1 [Compound 4q, N-(3-fluorophenyl)-4-(pyridin-4-ylmethyl)piperazine-1-carboxamide] | < 4.00 | –
O=C(Nc1ccc(F)cc1)N1CCN(Cc2ccncc2)CC1 [Compound 4r, N-(4-fluorophenyl)-4-(pyridin-4-ylmethyl)piperazine-1-carboxamide] | < 4.00 | –
O=C(Nc1cc(F)cc(F)c1)N1CCN(Cc2ccncc2)CC1 [Compound 4s, N-(3,5-difluorophenyl)-4-(pyridin-4-ylmethyl)piperazine-1-carboxamide] | < 4.00 | –
O=C(Nc1cccc(C(F)(F)F)c1)N1CCN(Cc2ccncc2)CC1 [Compound 4t, 4-(Pyridin-4-ylmethyl)-N-(3-(trifluoromethyl)phenyl)piperazine-1-carboxamide] | 4.32 | –
O=C(Nc1ccc(C(F)(F)F)cc1)N1CCN(Cc2ccncc2)CC1 [Compound 4u, 4-(Pyridin-4-ylmethyl)-N-(4-(trifluoromethyl)phenyl)piperazine-1-carboxamide] | < 4.30 | –
O=C(Nc1cc(C(F)(F)F)cc(C(F)(F)F)c1)N1CCN(Cc2ccncc2)CC1 [Compound 4v, N-(3,5-bis(trifluoromethyl)phenyl)-4-(pyridin-4-ylmethyl)piperazine-1-carboxamide] | ~5.00 | effect on intracellular parasites [2]: little effect
O=C(Nc1ccc(OCc2cc(C(F)(F)F)cc(C(F)(F)F)c2)cc1)N1CCN(CCCc2ccccc2)CC1 [Compound 18ab, N-(4-((3,5-bis(trifluoromethyl)benzyl)oxy)phenyl)-4-(3-phenylpropyl)piperazine-1-carboxamide] | < 4.30 | –
O=C(Nc1ccc(OCc2cc(C(F)(F)F)cc(C(F)(F)F)c2)cc1)N1CCN(CCc2ccncc2)CC1 [Compound 18e, N-(4-((3,5-bis(trifluoromethyl)benzyl)oxy)phenyl)-4-(2-(pyridin-4-yl)ethyl)piperazine-1-carboxamide] | – | pEC50 ([2]; Leishmania donovani, Peritoneal macrophage, murine peritoneal macrophages as host cells, n=3 determinations, read-out: EC50 against intracellular L. donovani): 5.40; EC50 against intracellular L. donovani [2, 4]: low micromolar range; host cell toxicity [3]: lower; toxicity to host cells [3]: exhibited toxicity to host cells; increase in inhibitory potency against CYP5122A1 compared to hit compound 18a (L. donovani CYP5122A1): 3.4 fold
COc1cc(COc2ccc(NC(=O)N3CCN(CCc4ccncc4)CC3)cc2)cc(OC)c1 [Compound 18g, N-(4-((3,5-dimethoxybenzyl)oxy)phenyl)-4-(2-(pyridin-4-yl)ethyl)piperazine-1-carboxamide] | – | decrease in activity against CYP51 compared to hit compound 18a (L. donovani CYP51): 1.8 fold; decrease in potency against CYP5122A1 compared to hit compound 18a (L. donovani CYP5122A1): 3.0 fold
CC(C)(C)c1cc(COc2ccc(NC(=O)N3CCN(CCc4ccncc4)CC3)cc2)cc(C(C)(C)C)c1 [Compound 18i, N-(4-((3,5-di-tert-butylbenzyl)oxy)phenyl)-4-(2-(pyridin-4-yl)ethyl)piperazine-1-carboxamide] | – | EC50 against intracellular L. donovani [2, 4]: low micromolar range; host cell toxicity [3]: lower; toxicity to host cells [3]: exhibited toxicity to host cells; increase in inhibitory potency against CYP5122A1 compared to hit compound 18a (L. donovani CYP5122A1): 2.2 fold
O=C(Nc1ccc(OCc2cc(C(F)(F)F)cc(C(F)(F)F)c2)cc1)N1CCN(CCn2cccn2)CC1 [Compound 18o, 4-(2-(1H-pyrazol-1-yl)ethyl)-N-(4-((3,5-bis(trifluoromethyl)benzyl)oxy)phenyl)piperazine-1-carboxamide] | 4.52 | –
O=C(Nc1ccc(OCc2cc(C(F)(F)F)cc(C(F)(F)F)c2)cc1)N1CCN(CCn2cncn2)CC1 [Compound 18q, 4-(2-(1H-1,2,4-triazol-1-yl)ethyl)-N-(4-((3,5-bis(trifluoromethyl)benzyl)oxy)phenyl)piperazine-1-carboxamide] | < 4.30 | pEC50 (J774 macrophages): < 4.30
O=C(Nc1ccc(OCc2cc(C(F)(F)F)cc(C(F)(F)F)c2)cc1)N1CCN(CCc2ccccc2)CC1 [Compound 18r, N-(4-((3,5-bis(trifluoromethyl)benzyl)oxy)phenyl)-4-phenethylpiperazine-1-carboxamide] | < 4.90 | –
COc1ccc(CCN2CCN(C(=O)Nc3ccc(OCc4cc(C(F)(F)F)cc(C(F)(F)F)c4)cc3)CC2)cc1 [Compound 18x, N-(4-((3,5-bis(trifluoromethyl)benzyl)oxy)phenyl)-4-(4-methoxyphenethyl)piperazine-1-carboxamide] | – | pEC50 (J774 macrophages): 5.08
